Assay results from US4232040A, “Compositions for and a method of preventing diabetic complications” (Syntex (U.S.A.) Inc., priority 1978, dated 1980).

Experiments:
Aldose reductase = biological target: T1, Aldose reductase (Oryctolagus cuniculus, UniProt P15122); test: Aldose reductase inhibition in vitro (rabbit lens enzyme, glyceraldehyde substrate, loss of absorbance at 340 millimicrons); format: biochemical, New Zealand rabbit; conditions: 2 min, Table I, relative to non-inhibited control (0%); for inhibition at 1 µM: molar concentration of xanthone compound 1 × 10^-6; for inhibition at 100 µM: molar concentration of xanthone compound 1 × 10^-4; for inhibition at 10 µM: molar concentration of xanthone compound 1 × 10^-5
T1 construct: Aldose reductase is isolated by homogenizing the lens in 3 volumes of water; from tissue; host or cells: lens of mature New Zealand rabbits
Procedure: In brief, a solution of the enzyme is added to an appropriately buffered solution containing glyceraldehyde. The loss of ultra violet absorbance at 340 millimicrons is indicative of the rate of reaction of the aldehyde with the enzyme as previously reported by Hayman and Kinoshita, (J. Biol. Chem: 240, 877, (1965)).
Fifty lenses are obtained from mature, New Zealand, rabbits and are immediately frozen on dry ice. Aldose reductase is isolated by homogenizing the lens in 3 volumes of water for 30 seconds in a Waring blender followed by centrifugation at 10,000 xg for 15 minutes to remove insoluble material. Saturated ammonium sulfate is added to the supernatant fluid to 40% saturation. The suspension is centrifuged after 15 minutes, and the supernatant liquid recovered. Additional protein is removed by increasing the ammonium sulfate concentration to 50%, and centrifuging the mixture. Aldose reductase is precipitated from the 50% saturated solution by the addition of powdered ammonium sulfate to 75% saturation and is recovered by centrifugation. The precipitated enzyme is assayed by following the ultraviolet absorbance at 340 millimicrons after dissolving the enzyme in 0.05 M sodium chloride. The enzyme (0.50 ml) is added to a quartz cuvette containing phosphate buffer (0.067 M, pH 6.0), NADPH (2×10^-5 M), and water to a final volume of 3 ml and the cuvette inserted in a conventional ultra-violet spectrometer. The reaction is started by the addition of substrate (glyceraldehyde) to the contents of the cuvette and is followed by the determination of loss of absorbance at 340 millimicrons for 2 minutes at 37° C. The reaction rate observed is usually linear for at least 5 minutes.
All results are shown in Tables I, II, and III as % inhibition, i.e. based on a non-inhibited control sample, no inhibition, 0%.

lens aldose reductase = conditions: in vitro studies; cited from earlier work

Row | inhibition at 1 µM (Aldose reductase) | inhibition at 100 µM (Aldose reductase) | inhibition at 10 µM (Aldose reductase) | SMILES | inhibition of lens aldose reductase (lens aldose reductase)
1 | 0% | – | – | O=C(O)c1ccc2oc3ccc(S(=O)(=O)O)cc3c(=O)c2c1 [H 3 H] | –
2 | 67% | 94% | 87% | CN(C)S(=O)(=O)c1ccc2oc3ccc(C(=O)O)cc3c(=O)c2c1 | –
3 | 25% | 95% | 75% | CC(C)CN(C)S(=O)(=O)c1ccc2oc3ccc(C(=O)O)cc3c(=O)c2c1 | –

The remaining lines, values behind:

Row | SMILES | inhibition at 1 µM (Aldose reductase) | inhibition at 100 µM (Aldose reductase) | inhibition at 10 µM (Aldose reductase) | inhibition of lens aldose reductase (lens aldose reductase)
4 | O=c1c(O)c(-c2ccc(O)c(O)c2)oc2cc(O)cc(O)c12 [quercetin] | – | – | – | among the most potent
5 | CN(C)S(=O)(=O)c1ccc2oc3ccc(C(=O)N(CCO)CCO)cc3c(=O)c2c1 | 29% | 86% | 64% | –
6 | C[C@@H]1O[C@@H](Oc2c(-c3ccc(O)c(O)c3)oc3cc(O)cc(O)c3c2=O)[C@H](O)[C@H](O)[C@H]1O [quercetrin] | – | – | – | among the most potent
7 | C[C@@H]1O[C@@H](Oc2c(-c3cc(O)c(O)c(O)c3)oc3cc(O)cc(O)c3c2=O)[C@H](O)[C@H](O)[C@H]1O [myrecetrin] | – | – | – | among the most potent
